# From patent US20160281077A1, “MEDIUM AND METHOD FOR CULTURING EUGLENA AND METHOD FOR REDUCING PHOTOINHIBITION IN EUGLENA” (Euglena Co., Ltd., priority 2015, published 2016)
# Columns and labels:
# [1] = test system: Euglena gracilis Z; test: Study 3: photocurrent after addition of Euglena and of electron transport inhibitor DBMIB; type: cell-based; conditions: DBMIB 100 μM added after about 37 minutes to PMF 3 g/L medium with Euglena; current before about 8 μA
# Protocol: To determine whether the effect of the medium supplemented with PMF in facilitating the proliferation of Euglena in electrochemical culture as shown by the Studies 1 and 2 is attributed to extracellular transfer of electrons from Euglena, DBMIB (2,5-dibromo-3-methyl-6-isopropyl-p-benzoquinone), which is an electron transport inhibitor, was added to the culture system that included PMF, and a change in photocurrent was measured.
# DBMIB binds to the plastoquinone-binding site of the cytochrome b6f and prevents the oxidation of reduced plastoquinone thereby inhibiting electron transport. DBMIB inhibits the transfer of electrons from plastoquinone to the photosystem I and thus is used to measure the activity of the photosystem II.
# In the Study 3, the CM medium having a PMF concentration of 3 g/L was placed into the same three-electrode electrochemical cell as the Study 1. Then, the electrochemical cell was placed into a shielded enclosure to measure the photocurrent.
# After about 21 minutes from the start of the measurement, the precultured Euglena was added at an initial density (OD800) of 0.5. After about 37 minutes from the start of the measurement, DBMIB was added at a concentration of 100 μM to the medium.
# [2] = test system: Euglena gracilis Z; test: Study 2 and reference study: proliferation (cell density) of Euglena under strong or weak light; type: cell-based; conditions: 0.5 mM ascorbic acid in place of PMF
# Protocol: The CM medium having a PMF concentration of 0.5 g/L was placed into the same three-electrode electrochemical cell as the Study 1.
# To the medium, the precultured Euglena was added at an initial density (OD800) of 0.05 and electrochemically cultured under strong light having an intensity of 5000 lux, which is about one tenth of the maximum intensity of sunlight. After 0, 24, 48, 76, 96, and 148 hours from the start of the culture, the cell density was determined (Example 2). The voltage applied was +0.6 V vs. SHE.
# A similar study was performed on Euglena non-electrochemically cultured in the medium that included no PMF (Comparative Example 3).
# A similar study was also performed on Euglena electrochemically cultured in the medium that included PMF (Comparative Example 4) and Euglena electrochemically cultured in the medium that included no PMF (Comparative Example 5) under weak light having an intensity of 1000 lux, which is about one fiftieth of the maximum intensity of sunlight.
# In the study, proliferation of Euglena that were cultured in the medium supplemented with or without 0.5 mM of ascorbic acid in place of PMF used in the Study 2 under strong light or under weak light was compared. The study was performed in the same manner as in the Study 2 except that 0.5 mM of ascorbic acid was added in place of PMF.
SMILES,current after addition of DBMIB [1],facilitating the proliferation of Euglena under strong light ([2]; strong light (5000 lux)),facilitating the proliferation of Euglena under weak light ([2]; weak light (1000 lux))
"CC1=C(Br)C(=O)C(C(C)C)=C(Br)C1=O [DBMIB, 2,5-dibromo-3-methyl-6-isopropyl-p-benzoquinone]",about 4 μA,–,–
O=C1O[C@H]([C@@H](O)CO)C(O)=C1O [ascorbic acid],–,effective in facilitating the proliferation of Euglena,not effective in facilitating the proliferation
